The source of these data is patent US6214859A, “Ethylamine derivatives” (Fujimoto Brothers Co., Ltd., priority 1997, dated 2001).

For data set [1], the system named is rats reduced learning ability by tetrabenazine. Put plainly: Conditioned avoidance task in the shuttle box (tetrabenazine-treated rats). The note with it: tetrabenazine 1 mg/kg s.c., significance and direction. Format: in vivo, rat. The procedure, abridged: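 Male and female rats (200–220 g) were trained in a shuttle box (light/buzzer conditioned stimulus, 100 trials/day for 5 days). Tetrabenazine 1 mg/kg s.c. was given 1 h before testing, with compound at 1, 2, 2.5 or 5 mg/kg s.c. given together with tetrabenazine. CARs, EFs and IRs were counted automatically and analysed by multi-way ANOVA.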

For data set [2], the system named is dopamine release, striatum. Put plainly: Release of biogenic amines from brain tissue: dopamine, striatum. It counts as in vivo, Wistar rats. Here is the method:
(§1) The method described in Life Sci., 56, 611-620 (1995) was used. After Wistar rats were decapitated, appropriate brain samples, which were striatun, substantia nigra, tuberculum olfactorium, locus coeruleus and raphe, were removed quickly and soaked in oxygenated (95% O2 and 5% CO2) Krebs solution at 37° C. The composition of Krebs solution was as follows in […]: NaCl 111, KCl 4.7, CaCl2 2.5, MgSO4 1.64, NaHCO3 25, KH2 PO4 1.2, glucose 11, 50 mg/l ascorbic add and 20 mg/l EDTA-2 Na. The preparations, soaked in one organ bath, were as follows: 1) four pieces of striatum (each halved), 2) four pieces of substantia nigra, 3) four pieces of tuberculum olfactorium; 4) eight pieces of locus coeruleus; 5) eight pieces of raphe. After incubation of the appropriate tissue for 20 min, the Krebs solution was replaced, the tissue soaked for 20 min in Krebs solution dissolving the compounds of this invention and the amount of biogenic amine released during this period of time was estimate. The compounds of this invention and PPAP, control compound, were dissolved in saline and were administered subcutaneously before 30 min to removing brain sample. For measuring noradrenaline and dopamine, samples were purified on 60 mg alumina containing micro columns (BDH Chemicals Ltd.) according to the method described in J. Pharmacol. Exp. Ther., 138, 360-372 (1962) For measuring serotonin, samples were purified on 15 mg Sephadex G-10 micro columns (Pharmacia). Dopamine, noradrenaline and serotonin were determined by high performance liquid chromatography (Waters 746 data module) with electrochemical detection (Waters 460 electrochemical detector). Waters Resolve 5μ Spherical C18 3.9×150 mm column was used as separating column and triethylamine-phosphate buffer (pH 5.2), containing 200 mg/l octane sulfonate sodium and 18 mg/l EDTA-2 Na with 6% acetonitrile, was used as mobile phase. The release amount of appropriate amine was noted as nmol/g tissue released for 20 min. deference of means tested by Student's t-test and significant level was set at P<.05.

Data set [3] relates to dopamine release, substantia nigra. Put plainly: Release of biogenic amines from brain tissue: dopamine, substantia nigra. It counts as in vivo, Wistar rats. The method, then:
as §1

Data set [4] deals with dopamine release, tuberculum olfactorium. Put plainly: Release of biogenic amines from brain tissue: dopamine, tuberculum olfactorium. Format: in vivo, Wistar rats. The method, then:
as §1

Data set [5] concerns noradrenaline release, locus coeruleus. Description: Release of biogenic amines from brain tissue: noradrenaline, locus coeruleus. It counts as in vivo, Wistar rats. Here is the method: as §1
The subject of the next data set is serotonin release, raphe. Description: Release of biogenic amines from brain tissue: serotonin, raphe. It counts as in vivo, Wistar rats. Here is the method: as §1
Data set [6] can be described thus: Toxicity screening using primary cultured hepatocyte (LDH release). The settings on record: rat, primary hepatocytes, 24 hr, control 0.5% saline or 0.5% DMSO, read-out: Percent control of LDH release. Format: cell-based, rat. The method, then: (§2) The hepatocytes was prepared from rat liver by collagenase perfusion method and suspension containing 5×10^5 cells/ml were prepared. After cultivation for 24 hr, the suspension was exchanged to the William's Medium E (GIBCO BRL) containing 10 or 100 μM of the compounds of this invention. After cultivation for 24 hr, the activity of lactate dehydrogenase (LDH) released in the medium was measured.

The subject of data set [7] is primary cultured hepatocyte. The description is as above. Format: cell-based, rat. The note with it: 10 μM. Here is the method: as §2
The target in the next data set is α1 receptor. Description: Affinity to α1 receptor. On the set-up: species or system rat. The settings on record: read-out: Affinity to α1 receptor (MIC50; mole concentration for 50% inhibition of binding); 0.25 nM ^3H-prazocin; 90 min. The method, then:
The solution of receptor was prepared as follows. As soon as rats were decapitated, brain was removed and its weight was measured. Its brain was homogenized in ten times volumes of ice-cold 0.35 M sucrose (pH 7.4) by glass homogenizer with teflon pestle which was revolted by motors. Thereafter, the homogenate was centrifuged at 4° C. at 900×g for 10 min and the supernatant was, furthermore, recentrifuged at 4° C. at 22,000×g for 20 min. The precipitate was suspended by addition of 5 mM phosphate buffer solution (pH 7.4). After the suspension was incubated at 37° C. for 30 min, the suspension was recentrifuged at 4° C. at 22,000×g for 20 min. The precipitate was resuspended by addition of 10 ml of 5 mM phosphate buffer solution (pH 8.0). The precipitate was used as the solution of receptor.
^3 H-prazocin was used as a ligand. 0.25 nM ^3 H-prazocin in 5 mM phosphate buffer (pH 8.0), the compound of this invention and the solution of receptor were added in tube and the mixture were incubated at 25° C. for 90 min. In addition, the […] binding was shown by binding value of ^3 H-prazocin under the coexistence with 0.1 μM prazocin. The binding reaction was carried out as follows. After ^3 H-prazocin (binding type: B) bound to receptor using glassfiberfilter (pore size: 0.5 μm, Whatman GF/C.) and free type of prazocin (free type: F) were separated with B/F separator (Brandel, USA), only the binding type of ^3 H-prazocin was collected. The binding type of ^3 H-prazocin absorbed to glass-fiber filter was washed with ice-cold saline solution and was remove to vial. After 10 ml of scintillation cocktail was added in it, the radioactivity was determined. From the binding inhibition rate of α1 receptor and ligand, affinity of the compounds of this invention to α1 receptor was measured.
If affinity of certain compound to a receptor is high, the binding ligand and receptor is inhibited.

The target of another data set is α2 receptor. Put plainly: Affinity to α2 receptor. Details: species or system rat. The settings on record: read-out: Affinity to α2 receptor (MIC50; mole concentration for 50% inhibition of binding); 0.7 nM ^3H-rauwolscine.
Another data set has as its target T1, D1 receptor (Rattus norvegicus, UniProt P18901).
T1 construct: The precipitate was used as the solution of receptor; from tissue; host or cells: rat brain (whole) crude membranes
Put plainly: Affinity to D1 receptor. It counts as binding.

Another data set has as its target D2 receptor. Description: Affinity to D2 receptor. Details: species or system rat. The note with it: read-out: Affinity to D2 receptor (MIC50; mole concentration for 50% inhibition of binding); 2.0 nM spiperone.
Another data set addresses 5-HT1 receptor. Put plainly: Affinity to 5-HT1 receptor. On the set-up: species or system rat. The settings on record: read-out: Affinity to 5-HT1 receptor (MIC50; mole concentration for 50% inhibition of binding); 2 nM ^3H-5-HT.
Another data set addresses T2, 5-HT2 receptor (Rattus norvegicus, UniProt P14842).
T2 construct: The precipitate was used as the solution of receptor; from tissue; host or cells: rat brain (whole) crude membranes
Description: Affinity to 5-HT2 receptor. Format: binding.

A value given as a limit tells only on which side of the number the result lay.

T2 sequence (P14842 whole entry): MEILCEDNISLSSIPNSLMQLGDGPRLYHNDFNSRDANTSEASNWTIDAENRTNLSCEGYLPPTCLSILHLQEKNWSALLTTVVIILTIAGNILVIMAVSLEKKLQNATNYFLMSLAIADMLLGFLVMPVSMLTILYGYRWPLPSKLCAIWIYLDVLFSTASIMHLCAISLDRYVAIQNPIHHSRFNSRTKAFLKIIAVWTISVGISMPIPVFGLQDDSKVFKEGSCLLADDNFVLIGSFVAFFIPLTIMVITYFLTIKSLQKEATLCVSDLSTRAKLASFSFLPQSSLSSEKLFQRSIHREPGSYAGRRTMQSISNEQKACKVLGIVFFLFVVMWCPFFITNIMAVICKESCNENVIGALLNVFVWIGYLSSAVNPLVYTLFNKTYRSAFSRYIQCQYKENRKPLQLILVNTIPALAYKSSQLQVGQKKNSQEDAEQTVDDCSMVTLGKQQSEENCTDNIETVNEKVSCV
T1 sequence (P18901 whole entry): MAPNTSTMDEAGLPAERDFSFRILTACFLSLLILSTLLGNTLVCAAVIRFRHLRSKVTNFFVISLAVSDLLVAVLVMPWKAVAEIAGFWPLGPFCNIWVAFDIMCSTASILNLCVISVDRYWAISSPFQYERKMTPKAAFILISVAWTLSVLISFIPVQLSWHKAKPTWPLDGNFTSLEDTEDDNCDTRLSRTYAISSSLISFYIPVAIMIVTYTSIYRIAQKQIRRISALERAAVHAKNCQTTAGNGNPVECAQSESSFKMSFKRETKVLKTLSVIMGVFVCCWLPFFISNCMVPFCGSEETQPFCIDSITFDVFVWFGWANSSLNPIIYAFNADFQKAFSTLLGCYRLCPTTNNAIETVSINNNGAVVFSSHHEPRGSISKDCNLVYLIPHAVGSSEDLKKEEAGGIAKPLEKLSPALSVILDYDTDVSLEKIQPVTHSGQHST

Regarding `CCCNC(CCC)Cc1ccccc1` (racemic) [PPAP, 1-phenyl-2-propylaminopentane, reference compound], in [1] (5 mg/kg s.c.), the “Condition Avoidance Reflex (CARs)” value is “**** .Arrow-up bold”. Further, the “Intersignal Reactions (IRs)” value in data set [1] (5 mg/kg s.c.) is reported as “**** .Arrow-up bold”. Further, the “Release of dopamine, striatum” value in data set [2] (0.25 mg/kg s.c.) is recorded as 3.5 ± 0.19 nmol/g tissue, for 20 min; in data set [2] (1.00 mg/kg s.c.), 3.6 ± 0.19 nmol/g tissue, for 20 min. Further, the “Release of dopamine, substantia nigra” value in data set [3] (0.25 mg/kg s.c.) is on record as 4.0 ± 0.24 nmol/g tissue, for 20 min; in data set [3] (1.00 mg/kg s.c.) it was 4.0 ± 0.21 nmol/g tissue, for 20 min. Moreover, the “Release of dopamine, tuberculum olfactorium” value was 3.7 ± 0.10 nmol/g tissue, for 20 min in data set [4] (0.25 mg/kg s.c.) and 3.2 ± 0.21 nmol/g tissue, for 20 min in [4] (1.00 mg/kg s.c.). Also, the “Release of noradrenaline, locus coeruleus” value (“Release of noradrenaline” below) in data set [5] (0.25 mg/kg s.c.) is listed as 3.8 ± 0.30 nmol/g tissue, for 20 min; in [5] (1.00 mg/kg s.c.) it was 4.6 ± 0.15 nmol/g tissue, for 20 min. The “Release of serotonin, raphe” value was 0.416 ± 0.03 nmol/g tissue, for 20 min in the data set on serotonin release, raphe (0.25 mg/kg s.c.) and 0.741 ± 0.01 nmol/g tissue, for 20 min in the data set with serotonin release, raphe (1.00 mg/kg s.c.). Moreover, the activity at 24 h, 10 µM in [6] came to 127 ± 5.45%. Besides, in [6], the activity at 24 h, 100 µM was 152 ± 11.1%. Moreover, in data set [7], the “LDH release, significance in words” value is given as “released LDH significantly”.

For `CC(C)C[C@H]1C(=O)N2CCC[C@H]2[C@]2(O)O[C@](NC(=O)[C@@H]3C=C4c5cccc6[nH]c(Br)c(c56)C[C@H]4N(C)C3)(C(C)C)C(=O)N12` [Bromocriptine, reference compound], the IC50 on α1 receptor turned out to be 0.01 µM; on α2 receptor, 0.1 µM; on D1 receptor it was 10 µM; at D2 receptor, 0.01 µM; on 5-HT1 receptor, 0.1 µM; on 5-HT2 receptor it was 1 µM.

With `CCCNC(CCC)Cc1cccc2[nH]ccc12.Cl` (stereo not shown) [Compound No. 21, 1-(Indol-4-yl)-2-propylaminopentane Hydrochloride], the “Condition Avoidance Reflex (CARs)” value in data set [1] (0.5 mg/kg s.c.) is on record as “** .Arrow-up bold”; in data set [1] (1 mg/kg s.c.), “**** .Arrow-up bold”. The “Release of dopamine, striatum” value in data set [2] (0.01 mg/kg s.c.) is 5.4 ± 0.17 nmol/g tissue, for 20 min. In data set [3] (0.01 mg/kg s.c.), the “Release of dopamine, substantia nigra” value is 10.0 ± 0.30 nmol/g tissue, for 20 min. The “Release of dopamine, tuberculum olfactorium” value in data set [4] (0.01 mg/kg s.c.) is reported as 7.4 ± 0.15 nmol/g tissue, for 20 min. Moreover, the “Release of noradrenaline” value in [5] (0.01 mg/kg s.c.) is 4.6 ± 0.40 nmol/g tissue, for 20 min. Besides, the “Release of serotonin, raphe” value in the data set on serotonin release, raphe (0.01 mg/kg s.c.) was 0.354 ± 0.00 nmol/g tissue, for 20 min. The IC50 was greater than 10 µM at α1 receptor; 0.7 µM on α2 receptor; greater than 10 µM against D1 receptor; greater than 10 µM on D2 receptor; greater than 10 µM at 5-HT1 receptor; greater than 10 µM at 5-HT2 receptor. Besides, in data set [6], the activity at 24 h, 10 µM was determined as 110 ± 4.42%. In addition, in data set [6], the activity at 24 h, 100 µM stood at 130 ± 9.68%.

Regarding `CCCNC(CCC)Cc1cc2ccccc2o1.Cl` (stereo not shown) [Compound No. 25, 1-(Benzofuran-2-yl)-2-propylaminopentane Hydrochloride], the “Condition Avoidance Reflex (CARs)” value in data set [1] (1 mg/kg s.c.) and in data set [1] (5 mg/kg s.c.) was “**** .Arrow-up bold” each time. Moreover, the “Escape Failures (EFs)” value in data set [1] (1 mg/kg s.c.) is given as “* .dwnarw”. Moreover, the “Intersignal Reactions (IRs)” value in data set [1] (5 mg/kg s.c.) was “* .Arrow-up bold”. Also, the “Release of dopamine, striatum” value in [2] (0.01 mg/kg s.c.) was 5.3 ± 0.14 nmol/g tissue, for 20 min. In addition, in data set [3] (0.01 mg/kg s.c.), the “Release of dopamine, substantia nigra” value is recorded as 6.6 ± 0.04 nmol/g tissue, for 20 min. Moreover, the “Release of dopamine, tuberculum olfactorium” value in data set [4] (0.01 mg/kg s.c.) is listed as 6.5 ± 0.20 nmol/g tissue, for 20 min. The “Release of noradrenaline” value in data set [5] (0.01 mg/kg s.c.) was 4.3 ± 0.20 nmol/g tissue, for 20 min. In addition, in the data set with serotonin release, raphe (0.01 mg/kg s.c.), the “Release of serotonin, raphe” value is recorded as 0.457 ± 0.04 nmol/g tissue, for 20 min. The IC50 was greater than 10 µM at α1 receptor; 1 µM at α2 receptor; greater than 10 µM at D1 receptor; greater than 10 µM on D2 receptor; greater than 10 µM at 5-HT1 receptor; 20 µM against 5-HT2 receptor. For the same compound, in data set [6], the activity at 24 h, 10 µM was determined as 90.3 ± 2.85%. Further, the activity at 24 h, 100 µM in data set [6] amounted to 112 ± 37%.

With `C#CCN(C)[C@H](C)Cc1ccccc1` [Selegiline, reference compound], the IC50 on α1 receptor is greater than 10 µM; at α2 receptor, 2 µM; on D2 receptor, greater than 10 µM; at 5-HT1 receptor, greater than 10 µM; on 5-HT2 receptor it was greater than 10 µM.
